Where a name gives a salt, the structure may show the parent alone. Read-outs that look alike come from different tables or passages of the source.
Experiments:
[1] = target: Recombinant human Menin protein (2-610) / MLL polypeptide binding (Homo sapiens (Human), UniProt O00255); test: Menin and MLL protein binding at a molecular level (fluorescence polarization method); details: inhibition of Menin / MLL polypeptide binding
Method in brief: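 Binding of recombinant human Menin (2-610) to 6-FAM-labelled MLL peptide measured by fluorescence polarization (ex 480/em 535 nm) in Tris/NaCl/TCEP buffer, pH 7.5, 2% DMSO. Compound preincubated with Menin 30 min at room temperature, then peptide added for 30 min in the dark. Tested at 1.000 down to 0.0005 μM final.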

[2] = tested on: MV-4-11 cells (human acute myelogenous leukemia cell line carrying MLL-AF4 mutation); test: Cell proliferation assay, MV-4-11 (CellTiter-Glo); format: cell-based; details: Homo sapiens, MV4-11, 72 h
Method in brief: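 MV-4-11 cells (3000/well, IMDM with 10% HIFBS and 50 μM β-mercaptoethanol) exposed to compound at 1.100–0.001 μM final, 0.1% DMSO, for 3 days at 37°C. Viability read by CellTiter-Glo luminescence on day 0 and day 3, normalised to day-0 and untreated wells.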

[3] = MV-4-11 cells, 3 days treatment, CellTiter-Glo, read-out: GI50

Sequence of Recombinant human Menin protein (2-610) / MLL polypeptide binding (O00255 2-610): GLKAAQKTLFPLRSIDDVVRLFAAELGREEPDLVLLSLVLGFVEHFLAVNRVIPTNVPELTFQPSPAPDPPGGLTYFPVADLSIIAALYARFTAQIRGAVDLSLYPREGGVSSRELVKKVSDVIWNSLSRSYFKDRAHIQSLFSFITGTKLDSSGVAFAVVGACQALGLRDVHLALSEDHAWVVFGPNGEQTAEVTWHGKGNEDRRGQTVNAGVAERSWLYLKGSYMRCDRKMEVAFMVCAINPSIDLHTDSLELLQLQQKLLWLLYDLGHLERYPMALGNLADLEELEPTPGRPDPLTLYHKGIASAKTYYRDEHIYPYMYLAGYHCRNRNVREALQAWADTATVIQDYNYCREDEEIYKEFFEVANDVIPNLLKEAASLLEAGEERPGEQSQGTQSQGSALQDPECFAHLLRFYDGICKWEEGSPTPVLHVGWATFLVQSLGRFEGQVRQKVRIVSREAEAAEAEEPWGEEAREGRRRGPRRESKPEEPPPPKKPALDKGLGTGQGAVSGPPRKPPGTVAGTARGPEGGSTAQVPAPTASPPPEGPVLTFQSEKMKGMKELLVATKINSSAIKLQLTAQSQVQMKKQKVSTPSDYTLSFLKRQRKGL

SMILES | IC50 [1] | GI50 [2] | GI50 [2, 3]
COc1cc(N2CCC(CN3CCC4(CC3)CN(c3ncnnc3Oc3ccc(F)cc3C(=O)NC(C)C)C4)CC2)nnc1OC [Compound 177, 2-((5-(7-((1-(5,6-dimethoxypyridazin-3-yl)piperidin-4-yl)methyl)-2,7-diazaspiro[3.5]nonan-2-yl)-1,2,4-triazin-6-yl)oxy)-5-fluoro-N-isopropylbenzamide] | 47.3 nM | 92 nM | –
CCN(C(=O)c1cc(F)ccc1Oc1nnc(C)nc1N1CC2(CCN(Cc3ccc4c(cc(C#N)n4CCO)c3C)CC2)C1)C(C)C [Compound 160] | 87.7 nM | – | 54 nM
CCN(C(=O)c1cc(F)ccc1Oc1nncnc1N1CC2(CCN(CC3CCN(C(=O)Nc4ccccn4)CC3)CC2)C1)C(C)C [Compound 37] | 13.7 nM | – | 23 nM
[2H]C(c1ccc2[nH]c(C#N)cc2c1C)N1CCC2(CC1)CN(c1ncnnc1Oc1ccc(F)cc1C(=O)N(CC)C(C)C)C2 (stereo not shown) [Compound 175, 2-((5-(7-((2-cyano-4-methyl-1H-indol-5-yl)methyl-d)-2,7-diazaspiro[3.5]nonan-2-yl)-1,2,4-triazin-6-yl)oxy)-N-ethyl-5-fluoro-N-isopropylbenzamide] | 1.5 nM | – | 4 nM
CCNC(=O)c1cc(F)ccc1Oc1nncnc1N1CC2(CCN(CC3CCN(c4cc(OC)c(OC)nn4)CC3)CC2)C1 [Compound 178, 2-((5-(7-((1-(5,6-dimethoxypyridazin-3-yl)piperidin-4-yl)methyl)-2,7-diazaspiro[3.5]nonan-2-yl)-1,2,4-triazin-6-yl)oxy)-N-ethyl-5-fluorobenzamide] | 124 nM | – | 126 nM
CCN(C(=O)c1cc(F)ccc1Oc1nncnc1N1CC2(CCN(CC3CCN(C(=O)N(C)c4ccccn4)CC3)CC2)C1)C(C)C [Compound 25] | 163 nM | – | 231 nM
C[C@H]1COCCN1C(=O)c1cc(F)ccc1Oc1nncnc1N1CC2(CCN(CC3CCN(c4ccccn4)CC3)CC2)C1 [Compound 77] | 73.8 nM | – | 60 nM
CCN(C(=O)c1cc(F)ccc1Oc1nncnc1N1CC2(CCN(CC3(N(C)C(=O)COC)CC3)CC2)C1)C(C)C [Compound 144, N-ethyl-5-fluoro-N-isopropyl-2-((5-(7-((1-(2-methoxy-N-methylacetamido)cyclopropyl)methyl)-2,7-diazaspiro[3.5]nonan-2-yl)-1,2,4-triazin-6-yl)oxy)benzamide] | 616 nM | – | 644 nM
CCN(C(=O)c1cc(F)ccc1Oc1nncnc1N1CC2(CCN(CC3CCN(c4ccc(OC)cn4)CC3)CC2)C1)C(C)C [Compound 112] | 5.9 nM | – | 5 nM
CCN(C(=O)c1cc(F)ccc1Oc1nncnc1N1CC2(CCN(CC3CCN(C(=O)c4ccccc4F)CC3)CC2)C1)C(C)C [Compound 14] | 29.5 nM | – | 27 nM
CCN(C(=O)c1cc(F)ccc1Oc1nncnc1N1CC2(CCN(CC3CCN(c4ccnc(OC)c4)CC3)CC2)C1)C(C)C [Compound 114] | 2.3 nM | – | 3 nM
C=CC(=O)Nc1cccc(N2CCC(CN3CCC4(CC3)CN(c3ncnnc3Oc3ccc(F)cc3C(=O)N(CC)C(C)C)C4)CC2)c1 [Compound 183] | 4 nM | – | 2 nM
CCN(C(=O)c1cc(F)ccc1Oc1nncnc1N1CC2(CCN(CC3CCN(C(=O)NC4CC4)CC3)CC2)C1)C(C)C [Compound 26, N-cyclopropyl-4-((2-(6-(2-(ethyl(isopropyl)carbamoyl)-4-fluorophenoxy)-1,2,4-triazin-5-yl)-2,7-diazaspiro[3.5]nonan-7-yl)methyl)piperidine-1-carboxamide] | 0.9 nM | 7 nM | –
CCN(C(=O)c1cc(F)ccc1Oc1nncnc1N1CC2(CCN(CC3CCN(c4nc(C#N)co4)CC3)CC2)C1)C(C)C [Compound 80] | 6.6 nM | – | 16 nM
CCN(C(=O)c1cc(F)ccc1Oc1nncnc1N1CC2(CCN(Cc3ccc4oc(C(=O)NC)c(C)c4c3)CC2)C1)C(C)C [Compound 75] | 955 nM | – | 883 nM
CCN(C(=O)c1cc(F)ccc1Oc1nncnc1N1CC2(CCN(Cc3ccc4[nH]ccc4c3)CC2)C1)C(C)C [Compound 62] | 324 nM | – | 193 nM
CCN(C(=O)c1cc(F)ccc1Oc1nncnc1N1CC(C2(N(Cc3ccc4[nH]c(C#N)cc4c3C)C(C)C)CC2)C1)C(C)C [Compound 141] | 153 nM | – | 442 nM
CCN(C(=O)c1cc(F)ccc1Oc1nncnc1N1CC2(CCN(Cc3ccc4nc(OC)ncc4c3)CC2)C1)C(C)C [Compound 70] | > 1000 nM | – | 2150 nM
CCN(C(=O)c1cc(F)ccc1Oc1nncnc1N1CC2(CCN(Cc3ccc4c(cc(C#N)n4CCO)c3C)CC2)C1)C(C)C [Compound 154] | 0.8 nM | – | 2 nM

SMILES | IC50 [1] | GI50 [2] | GI50 [2, 3]
CCN(C(=O)c1cc(F)ccc1Oc1nncnc1N1CC2(CCN(CC3CCN(C(=O)NC4COC4)CC3)CC2)C1)C(C)C [Compound 33] | 2.9 nM | – | 18 nM
CCN(C(=O)c1cc(F)ccc1Oc1nncnc1N1CC2(CCN(CC3(N(C)CCOC)CC3)CC2)C1)C(C)C [Compound 140] | 31.6 nM | – | 37 nM
CCN(C(=O)c1cc(F)ccc1Oc1nncnc1N1CC2(CCN(CC3CCN(C(=O)C4(O)CC4)CC3)CC2)C1)C(C)C [Compound 11] | 5.1 nM | – | 20 nM
CCN(C(=O)c1cc(F)ccc1Oc1nncnc1N1CC2(CCN(Cc3ccc4oc(C)nc4c3)CC2)C1)C(C)C [Compound 67] | 512 nM | – | 309 nM
CCN(C(=O)c1cc(F)ccc1Oc1nncnc1N1CC2(CCN(Cc3cnc4c(c3)OC[C@H](c3ccc(OC)nc3)O4)CC2)C1)C(C)C [Compound 73] | > 1000 nM | – | 1270 nM
CCN(C(=O)c1cc(F)ccc1Oc1nncnc1N1CC2(CCN(CC3CCN(c4ccc(C(N)=O)cn4)CC3)CC2)C1)C(C)C [Compound 149, 6-(4-((2-(6-(2-(ethyl(isopropyl)carbamoyl)-4-fluorophenoxy)-1,2,4-triazin-5-yl)-2,7-diazaspiro[3.5]nonan-7-yl)methyl)piperidin-1-yl)nicotinamide formate] | 2.9 nM | 6 nM | –
CCN(C(=O)c1cc(F)ccc1Oc1nncnc1N1CC(C2(N(C)Cc3ccc4[nH]c(C#N)cc4c3C)CC2)C1)C(C)C [Compound 139, 2-((5-(3-(1-(((2-cyano-4-methyl-1H-indol-5-yl)methyl)(methyl)amino)cyclopropyl)azetidin-1-yl)-1,2,4-triazin-6-yl)oxy)-N-ethyl-5-fluoro-N-isopropylbenzamide] | 6.1 nM | – | 23 nM
CCN(C(=O)c1cc(F)ccc1Oc1nncnc1N1CC2(CCN(Cc3ccc4[nH]ncc4c3)CC2)C1)C(C)C [Compound 64] | 163 nM | – | 226 nM
CCN(C(=O)c1cc(F)ccc1Oc1nncnc1N1CC2(CCN(Cc3ccc4c(cc(C(=O)O)n4CCO)c3C)CC2)C1)C(C)C [Compound 159] | 450 nM | – | 642 nM
CCN(C(=O)c1cc(F)ccc1Oc1nncnc1N1CCC(C2(NCc3ccc4[nH]c(C#N)cc4c3C)CC2)C1)C(C)C (stereo not shown) [Compound 128] | 5.1 nM | – | 70 nM
CCOc1cc(N2CCC(CN3CCC4(CC3)CN(c3ncnnc3Oc3ccc(F)cc3C(=O)N(CC)C(C)C)C4)CC2)nnc1OCC [Compound 95] | 3.2 nM | – | 9 nM
CCN(C(=O)c1cc(F)ccc1Oc1nncnc1N1CC2(CCN(Cc3ccc4[nH]c(=O)ccc4c3)CC2)C1)C(C)C [Compound 72] | 28 nM | – | 81 nM
C=Cc1ccc(N2CCC(CN3CCC4(CC3)CN(c3ncnnc3Oc3ccc(F)cc3C(=O)N(CC)C(C)C)C4)CC2)nn1 [Compound 133, N-ethyl-5-fluoro-N-isopropyl-2-((5-(7-((1-(6-vinylpyridazin-3-yl)piperidin-4-yl)methyl)-2,7-diazaspiro[3.5]nonan-2-yl)-1,2,4-triazin-6-yl)oxy)benzamide] | 2 nM | – | 4 nM
N#Cc1ccc(N2CCC(CN3CCC4(CC3)CN(c3ncnnc3Oc3ccc(F)cc3C3=C(F)C(O)CCC3)C4)CC2)nc1 (stereo not shown) [Compound 136, 6-(4-((2-(6-((5,6′-difluoro-5′-hydroxy-2′,3′,4′,5′-tetrahydro-[1,1′-biphenyl]-2-yl)oxy)-1,2,4-triazin-5-yl)-2,7-diazaspiro[3.5]nonan-7-yl)methyl)piperidin-1-yl)nicotinonitrile] | 184 nM | – | 170 nM
CCN(C(=O)c1cc(F)ccc1Oc1nncnc1N1CC2(CCN(CC3CCN(C(=O)NCc4ccccc4)CC3)CC2)C1)C(C)C [Compound 34] | 8.1 nM | – | 24 nM
CCN(C(=O)c1cc(F)ccc1Oc1nncnc1N1CC2(CCN(CC3CCN(c4ccn(C)n4)CC3)CC2)C1)C(C)C [Compound 79] | 57.7 nM | – | 78 nM
C#Cc1ccc(N2CCC(CN3CCC4(CC3)CN(c3ncnnc3Oc3ccc(F)cc3C(=O)N(CC)C(C)C)C4)CC2)nn1 [Compound 134] | 1.3 nM | – | 2 nM
CCN(C(=O)c1cc(F)ccc1Oc1nncnc1N1CC2(CCN(CC3CCN(C(=O)c4cnn5cccnc45)CC3)CC2)C1)C(C)C [Compound 169, N-ethyl-5-fluoro-N-isopropyl-2-((5-(7-((1-(pyrazolo[1,5-a]pyrimidine-3-carbonyl)piperidin-4-yl)methy)-2,7-diazaspiro[3.5]nonan-2-yl)-1,2,4-triazin-6-yl)oxy)benzamide] | 166 nM | – | 108 nM
CCN(C(=O)c1cc(F)ccc1Oc1nncnc1N1CC2(CCN(CC3CCN(C(=O)NC)CC3)CC2)C1)C(C)C [Compound 27] | 5.3 nM | – | 13 nM
